28 compounds from publication PMC5439695 (PLoS ONE, 2017) can be followed below.

Several values for one entry are separate records, joined by “and”; a condition that tells them apart may be missing. Identical values can stand only once. Like-named read-outs stand apart in the source and are kept apart here.

Data set [1] concerns HEK293 and HepG2 cell lines.
In data set [2] the test system is HepG2 cells. The following applies: for IC50: HepG2, glo, n=136.
The subject of data set [3] is HEK293 cells. As to conditions: HEK293, flor, mean and SD, n=136.
Data set [4] deals with HEK293 cells. As to conditions: HEK293, glo, mean and SD, n=136.
Data set [5] concerns HepG2 cells. The data set can be described thus: CellTox Green Cytotoxicity Assay (flor) in HepG2, HepG2[flor]. The following applies: HepG2, flor, n=136, read-out: EC50. The data set is classed as cell-based, human.
[6] abbreviates: POD potency, max over real-time cytotoxicity assays.
The mark [7] stands for this setting: POD potency, median over real-time cytotoxicity assays.
Where [8] appears, read: HEK293[glo], HEK293[flor], HepG2[glo], HepG2[flor].

As to `Cl.Cl.Nc1ccc(-c2ccc(N)c(Cl)c2)cc1Cl` [3,3'-Dichlorobenzidine dihydrochloride], in data set [1] (setting [6]), the “Cyto(realtime)_max” value is given as 5.37 log10(M)*-1. Moreover, in data set [1] (setting [7]), the “Cyto(realtime)_median” value is 4.59 log10(M)*-1.

Turning to `CO[C@@]12[C@H](COC(N)=O)C3=C(C(=O)C(C)=C(N)C3=O)N1C[C@@H]1N[C@@H]12` [mitomycin C, reference compound], in the data set on HepG2 cells [2], the “activity in the assay (cytotoxic effect)” value is given as “active”.

Consider `C[C@]12CC[C@@H]3c4ccc(O)cc4C[C@@H](CCCCCCCCC[S+]([O-])CCCC(F)(F)C(F)(F)F)[C@H]3[C@@H]1CC[C@@H]2O` (stereo partly drawn) [fulvestrant, reference compound], for which the “cytotoxicity kinetics activity profile in the four real-time cytotoxicity assays” value (from here on “cytotoxicity kinetics activity profile”) in data set [1] (human) is “solely active, HEK293[glo]”.

Take `N=C1NC(=N)c2cc3ccccc3cc21` [1,3-Diiminobenz(f)isoindoline]: in data set [1] (setting [6]), the “Cyto(realtime)_max” value is given as 4.75 log10(M)*-1. Moreover, the “Cyto(realtime)_median” value in data set [1] (setting [7]) is listed as 4.40 log10(M)*-1.

For the compound “1-Ethyl-3-methylimidazolium diethylphosphate”, in data set [1], the “Cyto(realtime)_max” value is recorded as 6.32 log10(M)*-1 and the “Cyto(realtime)_median” value is recorded as 4.65 log10(M)*-1.

For the compound `CCCCCCCCCCCCn1cc[n+](C)c1.F[B-](F)(F)F`, in data set [1] (setting [6]), the “Cyto(realtime)_max” value is 6.57 log10(M)*-1. Besides, the “Cyto(realtime)_median” value in data set [1] (setting [7]) is 4.55 log10(M)*-1.

For `CC(C)(C)CC(C)(C)c1ccc(O)cc1` [4-(1,1,3,3-tetramethylbutyl)phenol, reference compound], the “cytotoxicity kinetics activity profile” value in data set [1] (setting [8]) is on record as “quickly reach the maximum cytotoxic effect in at least three assays”.

Turning to `CCCCC(CC)COC(=O)c1ccc(O)cc1` (stereo not drawn) [2-Ethylhexylparaben], the “Cyto(realtime)_max” value in data set [1] (setting [6]) is recorded as 4.68 log10(M)*-1. For the same compound, the “Cyto(realtime)_median” value in data set [1] (setting [7]) was 4.25 log10(M)*-1.

As for `C=C(c1ccc(C(=O)O)cc1)c1cc2c(cc1C)C(C)(C)CCC2(C)C` [Bexarotene], in data set [1], the “Cyto(realtime)_max” value is listed as 4.68 log10(M)*-1 and the “Cyto(realtime)_median” value is reported as 4.23 log10(M)*-1.

As for `CC=O` [Acetaldehyde], in data set [1] (setting [6]), the “Cyto(realtime)_max” value is listed as 6.67 log10(M)*-1. Further, the “Cyto(realtime)_median” value in data set [1] (setting [7]) is 4.54 log10(M)*-1.

As for `CCCCCCCCCCCCCCCCn1cc[n+](C)c1.F[B-](F)(F)F`, the “Cyto(realtime)_max” value in data set [1] (setting [6]) was 6.28 log10(M)*-1. Further, the “Cyto(realtime)_median” value in data set [1] (setting [7]) was 4.62 log10(M)*-1.

As for `C=CC1(C)OC(=O)N(c2cc(Cl)cc(Cl)c2)C1=O` (stereo not drawn) [vinclozolin, reference compound], the “cytotoxicity kinetics activity profile” value in data set [1] is reported as “no activity in all four real-time cytotoxicity assays”.

Turning to `CCCCCCCCCCCCCC[P+](CCCC)(CCCC)CCCC.CCCCCCCCCCCCc1ccc(S(=O)(=O)[O-])cc1`, the “Cyto(realtime)_max” value in data set [1] (setting [6]) was 6.97 log10(M)*-1. Further, in data set [1] (setting [7]), the “Cyto(realtime)_median” value is 5.03 log10(M)*-1.

`CCCCCCCC[N+](CCCCCCCC)(CCCCCCCC)CCCCCCCC` [tetra-N-octylammonium bromide, reference compound]: the EC50 in the data set on HEK293 cells [3] (8 hrs) is 9.88 ± 2.1 µM; in the data set on HEK293 cells [3] (16 hrs), 8.01 ± 1.52 µM; with HEK293 cells [3] (24 hrs), 6.06 ± 1.11 µM; in the data set with HEK293 cells [3] (32 hrs), 6.8 µM and 6.73 µM; in the data set with HEK293 cells [3] (40 hrs), 7.69 ± 1.76 µM; with HepG2 cells [5] (8 hrs) it was 7.59 ± 1.48 µM. Further, the EC50 with HepG2 cells [5] (16 hrs) was 6.18 ± 1.27 µM; in the data set with HepG2 cells [5] (24 hrs), 5.87 ± 1.1 µM; in the data set with HepG2 cells [5] (32 hrs), 6.43 ± 1 µM; in the data set on HepG2 cells [5] (40 hrs), 6.4 ± 0.96 µM. The IC50 in the data set with HepG2 cells [2] (8 hrs) amounted to 7.9 ± 1.62 µM; in the data set on HepG2 cells [2] (16 hrs), 7.53 ± 1.44 µM; in the data set on HepG2 cells [2] (24 hrs), 7.79 ± 1.54 µM; in the data set on HepG2 cells [2] (32 hrs), 8.05 ± 1.68 µM; in the data set on HepG2 cells [2] (40 hrs), 8.18 ± 1.91 µM; in the data set on HEK293 cells [4] (8 hrs), 5.91 ± 1.26 µM. For the same compound, the IC50 turned out to be 2.53 ± 0.74 µM in the data set with HEK293 cells [4] (16 hrs), 1.34 ± 0.52 µM in the data set on HEK293 cells [4] (24 hrs), 0.87 ± 0.44 µM with HEK293 cells [4] (32 hrs) and 0.79 ± 0.32 µM with HEK293 cells [4] (40 hrs).

In the case of `CCCCCCCCCCCCn1cc[n+](C)c1.O=S(=O)([O-])C(F)(F)F`, the “Cyto(realtime)_max” value in data set [1] (setting [6]) is on record as 6.68 log10(M)*-1. Besides, in data set [1] (setting [7]), the “Cyto(realtime)_median” value is 4.57 log10(M)*-1.

Consider `CCCCCCCCCCCCCC[n+]1ccn(C)c1.[Cl-]`, for which, in data set [1] (setting [6]), the “Cyto(realtime)_max” value was 6.67 log10(M)*-1. In data set [1] (setting [7]), the “Cyto(realtime)_median” value was 4.69 log10(M)*-1.

Turning to Bis(tributyltin)oxide, in data set [1], the “Cyto(realtime)_max” value is given as 7.21 log10(M)*-1 and the “Cyto(realtime)_median” value is on record as 6.40 log10(M)*-1.

`ClC(Cl)=C(c1ccc(Cl)cc1)c1ccc(Cl)cc1` [p,p'-DDE, reference compound]: the “cytotoxicity kinetics activity profile” value in data set [1] (setting [8]) is on record as “quickly reach the maximum cytotoxic effect in at least three assays”.

As to `CCCCCCCCCCCCCC[N+](C)(C)C.[Cl-]`, in data set [1] (setting [6]), the “Cyto(realtime)_max” value is listed as 5.94 log10(M)*-1. In addition, in data set [1] (setting [7]), the “Cyto(realtime)_median” value is reported as 4.88 log10(M)*-1.

`CCCCCCCCCCCCCC[P+](CCCCCC)(CCCCCC)CCCCCC.N#C[N-]C#N`: in data set [1] (setting [6]), the “Cyto(realtime)_max” value is 5.83 log10(M)*-1. In data set [1] (setting [7]), the “Cyto(realtime)_median” value is 4.81 log10(M)*-1.

In the case of `OCC(c1ccc(Cl)cc1)c1ccc(Cl)cc1` [2,2-Bis(4-chlorophenyl)ethanol], in data set [1] (setting [6]), the “Cyto(realtime)_max” value is given as 4.70 log10(M)*-1. Also, the “Cyto(realtime)_median” value in data set [1] (setting [7]) was 4.57 log10(M)*-1.

Regarding `CCCCCCCCCCCCCCCC[N+](C)(C)C.[Cl-]`, the “Cyto(realtime)_max” value in data set [1] (setting [6]) is reported as 5.58 log10(M)*-1. The “Cyto(realtime)_median” value in data set [1] (setting [7]) is reported as 4.79 log10(M)*-1.

Take `CCCCCCCCCCCCn1cc[n+](C)c1.[Cl-]` [1-Dodecyl-3-methylimidazolium chloride]: in data set [1] (setting [6]), the “Cyto(realtime)_max” value is listed as 7.06 log10(M)*-1. Moreover, the “Cyto(realtime)_median” value in data set [1] (setting [7]) is on record as 4.44 log10(M)*-1.

For `CC/C(=C(\c1ccc(O)cc1)c1ccc(OCCN(C)C)cc1)c1ccccc1` [(Z)-4-Hydroxytamoxifen], the “Cyto(realtime)_max” value in data set [1] (setting [6]) is on record as 4.89 log10(M)*-1. Also, the “Cyto(realtime)_median” value in data set [1] (setting [7]) is on record as 4.45 log10(M)*-1.

In the case of Triethyltin bromide, in data set [1], the “Cyto(realtime)_max” value is 6.72 log10(M)*-1 and the “Cyto(realtime)_median” value is reported as 5.42 log10(M)*-1.

Take `O=[N+]([O-])C1(Br)COCOC1` [5-Bromo-5-nitro-1,3-dioxane]: the “Cyto(realtime)_max” value in data set [1] (setting [6]) is reported as 4.72 log10(M)*-1. For the same compound, the “Cyto(realtime)_median” value in data set [1] (setting [7]) was 4.41 log10(M)*-1.

Consider C.I. Solvent Black 5, for which, in data set [1] (setting [6]), the “Cyto(realtime)_max” value was 5.68 log10(M)*-1. The “Cyto(realtime)_median” value in data set [1] (setting [7]) is 4.42 log10(M)*-1.

As to `CCCC[n+]1ccc(C)cc1.[Cl-]` [1-Butyl-4-methylpyridinium chloride], in data set [1] (setting [6]), the “Cyto(realtime)_max” value is on record as 5.01 log10(M)*-1. In data set [1] (setting [7]), the “Cyto(realtime)_median” value was 4.39 log10(M)*-1.

A word on the EC50: it is the concentration needed to bring the measured effect to its halfway point. For orientation: IC50 means the concentration at which inhibition is half-maximal. Lower therefore signals inhibition by little substance.
